Earlier results, collected in patent US20070105912A1, “Pharmaceutical compositions comprising lercanidipine” (priority 2003, published 2007).
“And” between values parts separate entries of the source, which are not always exact repeats. Equal values may be shown once.

Bound to plasma proteins (plasma proteins): more than 98% | Terminal elimination t1/2 (in vivo): 2 to 5 h | Time of peak plasma levels following dosing (oral administration): 1.5 to 3 h | Fraction of the oral dose excreted in urine (oral dose): about 50% | Increase of amount absorbed with simultaneous intake of food (oral, with food vs without food): 3 to 4 times and 3-4 times
SMILES: COC(=O)C1=C(C)NC(C)=C(C(=O)OC(C)(C)CN(C)CCC(c2ccccc2)c2ccccc2)C1c1cccc([N+](=O)[O-])c1 (centres unmarked) [Lercanidipine, methyl 1,1-N-trimethyl-N-(3,3-diphenylpropyl)aminoethyl 1,4dihydro 6-dimethyl (3-nitrophenyl)pyridine-3,5-dicarboxylate]
